Results taken from EP0416746A2 (priority 1989, dated 1991).
Read-outs that look alike come from different tables or passages of the source.

How the values were obtained:
[1] = system: Venturia inaequalis; conditions: in vivo
[2] = system: Plasmopara viticola; assay type: in vivo
[3] = system: Phytophthora infestans; assay type: in vivo; conditions: active = greater than 50% control of the disease at 125 ppm (w/v) or less; spray or stem base drench; late tomato blight
[4] = system: Pellicularia sasakii; assay type: in vivo
[5] = system: Pyricularia oryzae; assay type: in vivo; conditions: active = greater than 50% control of the disease at 125 ppm (w/v) or less; spray or stem base drench; rice blast
[6] = system: Botrytis cinerea; assay type: in vivo; conditions: active = greater than 50% control of the disease at 125 ppm (w/v) or less; spray or stem base drench; grey mould of tomato
[7] = system: Erysiphe graminis; assay type: in vivo; conditions: active = greater than 50% control of the disease at 125 ppm (w/v) or less; spray or stem base drench; barley powdery mildew

## CO/N=C(/C(=O)OC)c1ccccc1CSC(=O)c1ccccc1 [Compound 12, methyl (E)-2-[2-(benzoylthiomethyl)phenyl]-(methoxyimino)acetate]
[1]
  VI: + (key: + = active)
[2]; in vivo
  PV: + (key: + = active)

## CO/C=C(/C(=O)OC)c1ccccc1CSC(=O)c1ccccc1 [Compound 1, methyl (E)-2-[2-(benzoylthiomethyl)phenyl]-3-methoxy-2-propenoate]
[1]
  VI: + (key: + = active)
[2]; in vivo
  PV: + (key: + = active)
[3]
  PI: + (+ = active)

## CO/C=C(/C(=O)OC)c1ccccc1CSC(=O)C(C)(C)C [Compound 2]
[2]; active = greater than 50% control of the disease at 125 ppm (w/v) or less, spray or stem base drench, vine downy mildew
  PV: + (+ = active)
[4]; active = greater than 50% control of the disease at 125 ppm (w/v) or less, spray or stem base drench, rice sheath blight
  PS: + (+ = active)
[5]
  PO: + (+ = active)
[6]
  BC: + (+ = active)
[7]
  EG: + (+ = active)
[3]
  PI: + (+ = active)

## CO/C=C(/C(=O)OC)c1ccccc1CSC(C)=O [Compound 3, methyl (E)-2-[2-(acetylthiomethyl)phenyl]-3-methoxy-2-propenoate]
[1]
  VI: + (key: + = active)
[4]; in vivo
  PS: + (key: + = active)
